The values below come from patent publication US10899932B2, “Non-amphoteric, quaternisable and water-soluble polymers for modifying the surface charge of solid particles” (priority 2014, dated 2021).

Structures are written as SMILES.

A short description of this data set: Zeta potential measurement of aqueous suspensions of powders (Coulter DELSA 440 SX). Type of data set: physicochemical. Conditions: aqueous suspension, pH 4. An excerpt: The zeta potential can be determined directly from the direction and velocity of migration of the dispersed particles in an electrical field, on the basis of the following relation:
[formula] • ζ=zeta potential (in mV) • ε=dielectric constant of the dispersion medium • v=electrophoretic migration velocity (in cm/s) • η=viscosity of the dispersion medium (poise, 1 poise=0.1 Pa·s) • E=field strength (in […]) • f=numerical factor (friction factor), dependent on the shape of the particles, their conductivity, and the size of the particles in comparison to the thickness of the diffuse double layer
The migration velocity here is measured, depending on the size of the particles under investigation, either by means of observation through a light microscope or, particularly in the case of relatively small particles, by means of laser correlation spectroscopy.
The zeta potential of the aqueous suspensions of boron nitride, silicon carbide, diamond, deltamethrin and azoxystrobin powders, all produced in analogy to the example above, was determined as follows. The measurement took place with a Coulter DELSA 440 SX instrument. […] This reversal of the original surface charge was verified for the inventive particles by the experimental measurements below.

Consider `CO/C=C(/C(=O)OC)c1ccccc1Oc1cc(Oc2ccccc2C#N)ncn1` [CE8, Azoxystrobin], for which the Zeta potential is −36 mV.

As to `CC1(C)[C@H](C(=O)O[C@H](C#N)c2cccc(Oc3ccccc3)c2)[C@@H]1C=C(Br)Br` [CE7, Deltamethrin], the Zeta potential is on record as −32 mV.
